Assays:
[1] = tested on: ATF4 and DDIT3 gene expression in retina; assay: Retinal Atf4 and Ddit3 gene expression after IP dosing, normoxic and OIR neonatal mice; type: in vivo, mouse; details: IP 10, 30 or 90 mpk at P12, 4 or 24 hours
Method: Compound 39 was tested in an animal model that shares many hallmarks with human ischemic retinopathies, the oxygen-induced retinopathy (OIR) neonatal mouse. To investigate the pharmacodynamic effect of Compound 39, it was intraperitoneally (IP) administered at either 10, 30, or 90 mpk. The dosing formulation was based on a vehicle comprising 1% Pluronic F-68/1% HPMC, 15% captisol. Both normoxic and OIR neonates were treated at P12 (the end of hyperoxia) and taken down after 4 hours, or 24 hours later at P13. Retinas were dissected, and RNA was extracted using a fully automated, spin-column-based nucleic acid extraction instrument (Qiacube Connect™). qPCR was performed using standard TaqMan® reagents and conditions. Atf4, Ddit3, and Tbp (control) gene expression was determined using primers: Mm00515324_m1, Mm00492097_m1, and Mm01277042_m1, respectively.

DDIT3 expression = assay: DDIT3 gene expression (qPCR) in HRMEC; type: cell-based, human; details: five hours, quarter-log dilutions from 10 μM, qPCR (FIG. 10C)
Method: Primary Human Retinal Microvascular Endothelial Cells (HRMEC—Cell Systems™ Corp., ACBRI 181; Lot #181.04.02.02.02) were cultured in Vascular Cell Basal Medium (ATCC® Lot 90909277) with Endothelial Cell Growth Kit-VEGF (ATCC Lot 80720201) with additional FBS added to a final concentration of 5% FBS. Cells were seeded in a 96-well plate at near confluency and treated the next day with Compound 39 for five hours. A dose response was generated using quarter-log dilutions using 10 μM as the starting concentration. Following treatment, RNA was extracted using the RNeasy® 96-Kit (Qiagen®), and cDNA was next generated using Superscript™ IV VILO™ Master Mix (Thermofisher®). qPCR was performed using standard TaqMan® reagents and conditions. DDTI3 gene expression was detected using primer Hs00358796_g1 and Tbp was used as a control gene using primer (Hs99999910_m1). Peak activation of DDIT3 expression was detected at ˜250 nM Compound 39.

[2] = tested on: ATF4 protein expression in retina; assay: Retinal ATF4 protein immunoblot after IP dosing, adult retinas; type: in vivo, mouse; details: IP 30 and 60 mpk, adult retinas 4 hours post administration, immunoblot vs Actinin (FIG. 11C)
Method: Intraperitoneally administered Compound 39 activated ATF4 protein expression at 30 and 60 mpk. Adult eye retinas were dissected 4 hours post Compound 39 administration and the harvested samples were kept on ice and homogenized using Precellys™ (500 μL tubes) tissue homogenizer in 300 μL MSD Tris Lysis buffer containing Pierce Protease Inhibitor Complete Mini tablet (ThermoScientific™ A32963). Homogenized samples were then centrifuged to separate supernatant from debris. Lysates were separated by SDS-PAGE and immunoblotted for ATF4 (D4B8) and control protein Actinin (Cell Signaling, cat. 3134S).

CNc1nc2ccc(-c3c(C)ccc(C(=O)c4c(-c5ccccc5)n(C)n(-c5ccccc5)c4=O)c3N)cc2s1 [Compound 39, 4-(2-Amino-4-methyl-3-(2-(methylamino)benzo[d]thiazol-6-yl)benzoyl)-1-methyl-2,5-diphenyl-1H-pyrazol-3(2H)-one]
induction of ATF4 gene expression in retina ([1]; normoxic and OIR neonates (FIG. 11A)): dose-dependent induction
induction of DDIT3 gene expression in retina ([1]; normoxic and OIR neonates (FIG. 11B)): dose-dependent induction
concentration of peak activation of DDIT3 expression (DDIT3 expression): ~250 nM
levels of ATF4 protein in retina [2]: increased
